Results as given in article PMC5818060 (Journal of Cell Science, 2018).

Tests used:
[1] = test system: endogenous CK1 / CK1 sensor in HEK293T cells; test: CK1 FRET biosensor, microplate reader FRET/CFP ratio; assay type: cell-based, human; details: HEK293T, CK1 sensor; D4476 0.4 or 2 µM in Fig. 1F-H, added 2-4 h prior to analysis; n=3
Procedure: HEK293T cells were seeded at a density of 20,000 cells/well on 96-well black microplates (PS, μClear, clear bottom, chimney well, Greiner No. 655090). Transfection was performed as described above. Unless indicated otherwise, the respective cell populations were transfected with 50-100 ng CK1 FRET biosensor, 100 ng regulator (i.e. N-Flag DDX3X) and 1-10 ng kinase (i.e. N-Flag CK1ε). Either empty pCS2 N-Flag vector or luciferase were used to transfect the same amount of DNA in every well. Generally, the different samples were run in triplicate for each individual experiment. Owing to the varying values for the FRET/CFP ratios based on transfection efficiency, cell density and the time point of analysis, we always set the FRET/CFP ratio of cells only transfected with the CK1 sensor to 1 in order to compare individual experiments. Importantly, the individual figures with the CK1 sensor represent only experiments performed on the same 96-well plate with the same cell density, transfection efficiency and time point.
Where applicable, the small-molecule CK1 inhibitor D4476 (BioVision) was added to the cells 2-4 h prior to the analysis. For each triplicate the respective volume of D4476 (in DMSO) was added together with 1 μl Fugene HD (Promega) to 60 μl serum-free medium. The solution was mixed, incubated for 15 min and added to the cells. […] In the corresponding controls an equal amount of DMSO instead of the inhibitor was added to the medium. Analysis was performed 48-60 h after transfection on an Infinite M1000 PRO microplate reader (Tecan) by exciting CFP with a wavelength of 433 nm and measuring the resulting emission at 460-600 nm in 2 nm increments. Fluorometric spectra were background subtracted with spectra recorded from wells with non-transfected cells. Resulting FRET/CFP ratios were calculated by dividing the intensity values at the respective peaks (478 nm for CFP, 528 nm for YFP) and analyzed essentially as described ([Fritz et al., 2013]). Where indicated, CK1δ/ε-derived peptides were transfected into cells using Metafectene (Biontex) 1 hour before measurements.

[2] = reason given for adding Fugene HD; ref Rena et al., 2004; cited from earlier work
Procedure: Where applicable, the small-molecule CK1 inhibitor D4476 (BioVision) was added to the cells 2-4 h prior to the analysis. For each triplicate the respective volume of D4476 (in DMSO) was added together with 1 μl Fugene HD (Promega) to 60 μl serum-free medium. The solution was mixed, incubated for 15 min and added to the cells. […] In the corresponding control ...

DDX3X = test: ATPase assay of DDX3X; assay type: biochemical, human; details: CK1ε pre-incubated with D4476; dsRNA-stimulated
Procedure: For the ATPase assay, Flag-tagged DDX3X full-length constructs were expressed in HEK293T cells. After purifying and eluting DDX3X from the beads, an aliquot of the eluates was resolved by SDS-PAGE in order to monitor the different DDX3X levels via western blotting and ImageJ. Based on this comparison, similar amounts of full-length DDX3X protein were used. Approximately 100 ng Flag-DDX3X protein and 10 ng His-CK1ε were used in a 60 μl reaction mix (reaction buffer: 20 mM Tris-HCl, pH 7.4, 200 mM NaCl, 0.5 mM DTT, 1 mM MgCl2, 1 mM ATP) with dsRNA (17 nM, 34 nM, 68 nM); the reaction was carried out at 37°C for 40 min. To phosphorylate DDX3X, 500 ng His-CK1εΔC or His-CK1εΔC^K38R were added in kinase buffer before eluting the DDX3X protein from the Sepharose magnetic Flag beads (Sigma). Incubation was performed at 37°C for 30 min. Then, beads were washed with 50 mM Tris-HCl, pH 7.5 and 500 mM NaCl before elution with Flag peptide. Termination of the helicase reaction was done with 10 μl of 50% TCA solution added to each reaction followed by centrifugation at 3000 g for 5 min at 4°C. Reaction mix was mixed with coloring solution (35 mM ammonium molybdate, 10 mM zinc acetate, 10% ascorbic acid, pH 5) in a 96-well plate before analysis using a spectrometer (wavelength 700 nm).

In the case of `NC(=O)c1ccc(-c2nc(-c3ccc4c(c3)OCCO4)c(-c3ccccn3)[nH]2)cc1` [D4476, reference compound], the “effect of CK1 inhibitor on FRET/CFP ratio of CK1 sensor” value [1] is listed as “reduced as a result of the inhibitor treatment”, the cell permeability [2] is listed as “poor cell permeability” and the “effect of CK1 inhibitor on CK1ε-mediated inhibition of DDX3X ATPase activity” value (DDX3X) is listed as “prevented inhibition of the ATPase activity of DDX3X”.
